# Patent US20240299384A1, “METHODS FOR TREATING PULMONARY HYPERTENSION IN PATIENTS WITH LEFT VENTRICULAR ASSIST DEVICE IMPLANTATION” (ACTELION PHARMACEUTICALS LTD, priority 2021, published 2024)
# Tests used:
# [1] = humans, cited from earlier work
# [2] = cited from earlier work
# healthy male subjects = experiment: Phase 1 open-label study of 75 mg qd macitentan with and without up-titration: safety; type: in vivo, human
# Method: This is a single-sequence, open-label, single-center, Phase 1 study in healthy male subjects. The study assessed the effect of 75 mg qd administration of macitentan. The study includes a screening phase of 21 days before the first macitentan administration, followed by an open-label treatment phase. Randomization was not used and subjects received the same treatment.
# • 29 subjects were enrolled.
# Administration of 75 mg qd macitentan started on Day 1. Macitentan was administered every day in the morning between 8:00 and 11:00 with 240 mL of noncarbonated water. One 75-mg macitentan film-coated tablet was thus administered as multiple qd oral doses under fed conditions.
# Subjects were planned to take macitentan 75 mg for 15 days. However the study was interrupted on the morning of day 8, i.e. when subjects had received 7 doses of macitentan 75 mg.
# Macitentan was administered in an up-titration regimen in the morning between 8:00 and 11:00 with 240 mL of noncarbonated water. One macitentan film-coated tablet (10 mg, 37.5 mg or 75 mg) was administered as multiple qd oral doses under fed conditions on Days 1-9 and Days 11-12, and under fasted conditions on Days 10 and 13. The up-titration regimen consists of 2 qd doses of 10 mg macitentan and 3 qd doses of 37.5 mg macitentan followed by 8 qd doses of 75 mg macitentan. On Days −4, −3, 10 and 13 (i.e., the days when dosing occurred under fasted conditions), no fluid intake apart from the water taken at the time of macitentan administration was allowed from 1 hour before until 1 hour after administration of macitentan.
# All reported AEs with onset during the treatment phase were included in the analysis. The effects on cardiovascular variables were evaluated and the following variables were collected: PR (ms), QRS (ms), QT (ms), QTcB (ms), QTcF (ms), heart rate (bpm), and RR. The normal range for vital signs is defined as follows: • Systolic blood pressure: 100-140 mmHg • Diastolic blood pressure: 60-90 mmHg • Pulse rate: 45-90 bpm • Respiratory rate: 8-20 per minute • Body temperature: 35.0° C. to 37.5° C.
# An AE is any untoward medical occurrence, i.e., any unfavorable and unintended sign (including an abnormal finding), symptom, or disease temporally associated with the use of macitentan. A treatment-emergent AE is any occurrence that is new in onset or aggravated in severity from the baseline condition. The following are used to assess all AEs: • Related: There is a reasonable causal relationship between macitentan administration and the AE. • Not Related: There is not a reasonable causal relationship between macitentan administration and the AE.
# An assessment of AE severity grade was made using the following general categorical descriptors: • Mild: Awareness of symptoms that are easily tolerated, causing minimal discomfort and not interfering with everyday activities. • Moderate: Sufficient discomfort is present to cause interference with normal activity. • Severe: Extreme distress, causing significant impairment of functioning or incapacitation. Prevents normal everyday activities.
# [3] = 75 mg qd, no titration, 6 subjects
smiles,measurement,setting,value
"CCCNS(=O)(=O)Nc1ncnc(OCCOc2ncc(Br)cn2)c1-c1ccc(Br)cc1 [Macitentan, propylsulfamic acid [5-(4-bromo-phenyl)-6-[2-(5-bromo-pyrimidin-2-yloxy)-ethoxy]-pyrimidin-4-yl]-amide]",time to steady state,[1]; 10 mg oral dose once a day,third day
same,absorption into the plasma,[1],absorbed slowly
same,half-life,[1],about 16 hours
same,"Flushing/feeling of warmth/redness of face and/or hands, Frequency observed with macitentan 10 mg",[2],Uncommon
same,"Headache, Frequency observed with macitentan 10 mg",[2],Very
same,"Photophobia, Frequency observed with macitentan 10 mg",[2],Not known
same,"Sinusitis/rhinitis/nasal congestion, Frequency observed with macitentan 10 mg",[2],Common
same,reduction in hemoglobin,healthy male subjects; 75 mg qd,≤ 2 g/dL
same,"vital signs, ECG and lab parameters",healthy male subjects; 75 mg qd,no clinically significant changes
same,severity of AEs overall,"healthy male subjects; 75 mg qd, AEs reported from Day 2 onwards",mainly mild
same,"Photophobia, Severity of AEs (No titration)",healthy male subjects; [3],All mild
same,"Sinusitis/rhinitis/nasal congestion, Severity of AEs (No titration)",healthy male subjects; [3],All mild
same,tolerability with up-titration regimen,"healthy male subjects; 75 mg, up-titration vs no up-titration",improved tolerability
same,resolution of AEs,healthy male subjects; four days after stopping macitentan,most of the AEs resolved
same,"Sinusitis/rhinitis/nasal congestion, Severity of AEs (With titration)","healthy male subjects; up-titration 10 mg, 37.5 mg, 75 mg qd, 6 subjects","Mild, less"
same,completion of treatment,healthy male subjects; up-titration regimen cohort,All subjects completed treatment
